Experimental data as given in patent publication US20170119806A1, “[…] LACTONE DERIVATIVES AND METHODS OF MAKING AND USING THEREOF” (OHIO STATE INNOVATION FOUNDATION, priority 2014, published 2017).
“Also recorded” adds a separate entry of the source.

Tests used:
[1] = system: CCD-112CoN normal human colon cells; assay: Cytotoxicity against CCD-112CoN cells
Text: Following a previous procedure (Still P C et al. J. Nat. Prod. 2013, 76, 243-249) and the method for screening cytotoxicity towards HT-29 cells mentioned above, the cytotoxicity of the samples was screened against CCD-112CoN normal human colon cells.

human primary NK cells = assay: IFN-γ production by NK cells (intracellular flow cytometry, ELISA); assay type: cell-based; conditions: 10 μM PL-C, 18 h
Procedure: (A) Chemical structure of PL-C (phyllanthusmin C, 4), (9) Healthy donor PBMCs (left panel) or enriched NK cells (right panel) were treated with DMSO vehicle control or 10 μM PL-C for 18 h in the presence of […] (10 ng/mL) or IL-15 (100 ng/mL). The cells were harvested and analyzed by intracellular flow cytometry to determine the frequency of IFN-γ^+ cells in CD56^+CD3^− NK cells (n=8 for PBMC and n=5 for enriched NK). (C) Highly purified (≧99.5%) human primary NK cells were treated with 10 μM PL-C for 18 h to determine the levels of IFN-γ secretion by ELISA. IFN-γ secretion from treatment with PL-C alone (left panel) or in combination with IL-12 (10 ng/mL, middle panel) or IL-15 (100 ng/mL, right panel) is shown. (D) Cells were treated as described in (C) and harvested at 12 h, IFNG mRNA expression was assessed by real-time RT-PCR, and the relative IFNG mRNA expression of each treatment was normalized to untreated vehicle control in the same donor. Data are shown as mean±SEM (n=6 in each treatment; error bars represent SEM). *p<0.05, **p<0.01, which denote statistical comparison between the two marked treatment groups (B-D). (E) Highly purified (≧99,5%) primary human NK cells were treated with 10 μM. PL-C in combination with various concentrations of IL-12 (10, 1, and 0.1 ng/mL) or IL-15 (100, 10, and 1 ng/mL) for 24 h to determine the levels of IFN-γ secretion. Representative data from one of three donors with the similar data are shown. *p<0.05, **p<0.01, which denote statistical comparison between the two marked treatment groups and are calculated from data of all tested donors. Error bars represent SD. […]
Isolation of PBMCs and NK cells. […] The purity of enriched NK cells was ≧80% assessed by flow cytometric analysis after staining with CD56-allophycocyanin and CD3-FITC Abs (BD Bio-sciences, San Jose, Calif.). […] The purity of magnetic bead-purified NK cells was ≧99.5%, as determined by the aforementioned flow cytometric analysis. […]

Toxicity of PL-C in mice = assay type: in vivo; conditions: up to 500 mg PL-C/kg body weight
Text: The findings discussed herein provide an avenue to prevent or treat cancer using natural products and their derivatives through enhancing NK cell immuno-surveillance. […] Developing less toxic drugs is important for preventing or treating some cancers, especially thr those which are dominant in children or in elderly populations, such as AML AML primarily affects older adults: the median age at diagnosis is >65 years (Estey E and Milner H. Lancet 2006, 368, 18941907; Yanada M and Naoe T. Int. J. Hematol. 2012, 96, 186-193). The 5 year survival rate of AML in older adults remains under 10% (Stein E M and Tallman M S. Int J. Hematol 2012, 96, 164-170). Elderly AML patients are less able than younger patients to tolerate effective therapies such as intensive chemotherapy and allogeneic stem cell transplantation.

[2] = system: HT-29 human colon cancer cells; assay: Cytotoxicity against HT-29 cells; conditions: read-out: IC50 values toward the HT-29 cells; Table 6; triplicate, two independent experiments

## COc1cc2c(OC3OCC(O)C(O)C3O)c3c(c(-c4ccc5c(c4)OCO5)c2cc1OC)C(=O)OC3 (stereo not drawn) [Compound 4, Phyllanthusmin C]
[1]
  cytotoxicity toward CCD-112CoN human normal colon cells (in words): non-cytotoxic
[1]; read-out: IC50 values toward the CCD-112 CoN cells, Table 6
  IC50: > 100 µM
Human primary NK cells; alone or with IL-12 (10 ng/mL) or IL-15 (100 ng/mL), listed as PL-C
  IFN-γ production/secretion by human NK cells: enhanced IFN-γ production; also recorded: can induce NK cell IFN-γ production; also recorded: induced NK cell secretion of IFN-γ even in the absence IL-12 or IL-15; also recorded: enhanced NK cell IFN-γ secretion in the presence of IL-12 or IL-15 stimulation; also recorded: enhanced by PL-C
Human primary NK cells; ligands 1 μg/mL, IL-12 (10 ng/mL)
  IFN-γ production induced by Pam3CSK4 or FSL-1 in NK cells: enhanced IFN-γ production
Toxicity of PL-C in mice
  toxicity in mice: lack of substantial toxicities
[2]
  IC50: 3.2 µM
